Assay results published in PubChem BioAssay AID330 (DTP/NCI, 2004).
Where “and” joins values, the source holds several entries; their conditions need not be identical. Identical values can stand only once. Toxic doses and inconclusive results are not listed. Peptide text beside a SMILES is read from it.

Tested on: P388 leukemia ip, CD2F1 mice, survival T/C
Test: NCI In Vivo Anticancer Drug Screen. Data for tumor model P388 Leukemia (intraperitoneal) in CD2F1 (CDF1) mice
Settings: endpoint: median survival time, higher = longer survival
Procedure, shortened: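 Mice carrying the transplanted tumor received test compound or vehicle. Survival was recorded in each group, and the value is the treated-group measurement divided by that of the vehicle-treated control group.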

[1] = dose: 50.0 mg/kg/injection, schedule: Q01DX009 (ip), vehicle: saline
[2] = dose: 100.0 mg/kg/injection, schedule: Q01DX009 (ip), vehicle: saline
[3] = dose: 200.0 mg/kg/injection, schedule: Q01DX009 (ip), vehicle: saline
[4] = dose: 100.0 mg/kg/injection, schedule: Q01DX001 (ip), vehicle: saline with Tween-80
[5] = dose: 200.0 mg/kg/injection, schedule: Q01DX001 (ip), vehicle: saline with Tween-80
[6] = dose: 50.0 mg/kg/injection, schedule: Q01DX005 (ip), vehicle: Klucel (hydroxypropylcellulose) (HPC)
[7] = dose: 100.0 mg/kg/injection, schedule: Q01DX005 (ip), vehicle: Klucel (hydroxypropylcellulose) (HPC)
[8] = dose: 200.0 mg/kg/injection, schedule: Q01DX005 (ip), vehicle: Klucel (hydroxypropylcellulose) (HPC)
[9] = dose: 50.0 mg/kg/injection, schedule: Q01DX005 (ip), vehicle: saline with Tween-80
[10] = dose: 100.0 mg/kg/injection, schedule: Q01DX005 (ip), vehicle: saline with Tween-80
[11] = dose: 200.0 mg/kg/injection, schedule: Q01DX005 (ip), vehicle: saline with Tween-80

For `O=C(O)c1cc(=O)c2c(OCC(O)COc3cccc4oc(C(=O)O)cc(=O)c34)cccc2o1.[Cu+2]`, the T/C (dose: 12.5 mg/kg/injection, schedule: Q04DX002 (ip), vehicle: Klucel (hydroxypropylcellulose) (HPC)) was 99 % of control, the T/C (dose: 25.0 mg/kg/injection, schedule: Q04DX002 (ip), vehicle: Klucel (hydroxypropylcellulose) (HPC)) was 96 % of control and the T/C (dose: 50.0 mg/kg/injection, schedule: Q04DX002 (ip), vehicle: Klucel (hydroxypropylcellulose) (HPC)) was 95 % of control.

In the case of `O=C(NC1CCCCC1)Oc1ccc[nH]c1=O`, the T/C (dose: 25.0 mg/kg/injection, schedule: Q01DX009 (ip), vehicle: saline) is reported as 92 % of control and 93 % of control, the T/C (dose: 25.0 mg/kg/injection, schedule: Q01DX009 (sc), vehicle: saline with Tween-80) is reported as 101 % of control and 109 % of control and the T/C [1] is reported as 102 % of control and 104 % of control. The T/C (dose: 50.0 mg/kg/injection, schedule: Q01DX009 (sc), vehicle: saline with Tween-80) was 106 % of control and 107 % of control, the T/C [2] was 105 % of control and 98 % of control and the T/C (dose: 100.0 mg/kg/injection, schedule: Q01DX009 (sc), vehicle: saline with Tween-80) was 102 % of control and 117 % of control. The T/C [3] was 102 % of control and 105 % of control, the T/C (dose: 200.0 mg/kg/injection, schedule: Q01DX009 (sc), vehicle: saline with Tween-80) was 108 % of control and 111 % of control and the T/C (dose: 400.0 mg/kg/injection, schedule: Q01DX009 (ip), vehicle: saline) was 116 % of control and 118 % of control. For the same compound, the T/C (dose: 400.0 mg/kg/injection, schedule: Q01DX009 (sc), vehicle: saline with Tween-80) was 104 % of control and 107 % of control and the T/C (dose: 600.0 mg/kg/injection, schedule: Q01DX009 (sc), vehicle: saline with Tween-80) was 102 % of control and 113 % of control.

With `COC(=O)C1(C2(C(=O)OC)NC(=S)NC(=O)C2C#N)CCCC1=O` (stereo not given) the T/C (dose: 60.0 mg/kg/injection, schedule: Q01DX005 (ip), vehicle: saline with Tween-80) was 108 % of control, the T/C (dose: 120.0 mg/kg/injection, schedule: Q01DX005 (ip), vehicle: saline with Tween-80) was 105 % of control and the T/C (dose: 240.0 mg/kg/injection, schedule: Q01DX005 (ip), vehicle: saline with Tween-80) was 105 % of control.

`C[N+](C)(N)CCS(N)(=O)=O` was tested, and the T/C [1] was 103 % of control, the T/C [2] was 103 % of control and the T/C [3] was 100 % of control.

`CCOP(=O)(O)C1CCCC(C)[N-]1.CCOP(=O)(O)C1CCCC(C)[N-]1.CCOP(=O)(O)C1CCCC(C)[N-]1.[Fe+3]` (stereo not given) was tested, and the T/C (dose: 12.5 mg/kg/injection, schedule: Q04DX003 (ip), vehicle: saline) was 91 % of control, the T/C (dose: 25.0 mg/kg/injection, schedule: Q04DX003 (ip), vehicle: saline) was 95 % of control and the T/C (dose: 50.0 mg/kg/injection, schedule: Q04DX003 (ip), vehicle: saline) was 94 % of control. For the same compound, the T/C (dose: 400.0 mg/kg/injection, schedule: Q04DX003 (ip), vehicle: saline) was 86 % of control.

For `COc1ccc(C(=O)c2[nH]ncc2Nc2ccccc2)cc1`, the T/C (dose: 60.0 mg/kg/injection, schedule: Q01DX005 (ip), vehicle: Klucel (hydroxypropylcellulose) (HPC)) was 97 % of control, the T/C (dose: 120.0 mg/kg/injection, schedule: Q01DX005 (ip), vehicle: Klucel (hydroxypropylcellulose) (HPC)) was 117 % of control and the T/C (dose: 240.0 mg/kg/injection, schedule: Q01DX005 (ip), vehicle: Klucel (hydroxypropylcellulose) (HPC)) was 91 % of control.

In the case of `COC1C(C)OC(OC2CC(C)(O)C(C(=O)O)c3cc4c(c(O)c32)C(=O)c2c(O)cc3c(c2C4=O)OC2OC3(C)C(O)C(N(C)C)C2O)C(OC)C1(C)OC` (stereo not given), the T/C (dose: 1.25 mg/kg/injection, schedule: Q04DX003 (ip), vehicle: other) is reported as 119 % of control, the T/C (dose: 2.5 mg/kg/injection, schedule: Q04DX003 (ip), vehicle: other) is reported as 113 % of control and the T/C (dose: 5.0 mg/kg/injection, schedule: Q04DX003 (ip), vehicle: other) is reported as 122 % of control. The T/C (dose: 20.0 mg/kg/injection, schedule: Q04DX003 (ip), vehicle: other) was 155 % of control.

With `NC(Cc1ccccc1)C(=O)NC(Cc1ccccc1)C(=O)O` (stereo not drawn) (H-Phe-Phe-OH; configuration not given here) the T/C [1] was 96 % of control, the T/C [2] was 99 % of control and the T/C [3] was 94 % of control.

For `CCCCCCCCCCCCCCCCc1c(C(=O)OC)nc(N)[nH]c1=O`, the T/C (dose: 3.75 mg/kg/injection, schedule: Q01DX005 (ip), vehicle: saline with Tween-80) was 99 % of control, the T/C (dose: 7.5 mg/kg/injection, schedule: Q01DX005 (ip), vehicle: saline with Tween-80) was 100 % of control and the T/C (dose: 15.0 mg/kg/injection, schedule: Q01DX005 (ip), vehicle: saline with Tween-80) was 103 % of control.

With `O=C(O)c1nn(-c2ccccc2)c2c1CSc1ccccc1-2` the T/C [4] was 109 % of control and the T/C [5] was 104 % of control.

In the case of `O=C(N/N=C/c1ccc(O)cc1)c1ccc(OCc2nc3ccccc3[nH]2)cc1`, the T/C (dose: 25.0 mg/kg/injection, schedule: Q01DX005 (ip), vehicle: Klucel (hydroxypropylcellulose) (HPC)) is reported as 102 % of control, the T/C [6] is reported as 96 % of control and the T/C [7] is reported as 102 % of control. For the same compound, the T/C [8] was 96 % of control.

With `C=CC(C)NC(=S)NNC(=S)NC` (stereo not given) the T/C [6] was 101 % of control, the T/C [7] was 100 % of control and the T/C [8] was 101 % of control.

With `CN(C)C1C(=O)C(C(=O)NCN2CCN(CCO)CC2)=C(O)C2(O)C(=O)C3=C(O)c4c(O)cccc4C(C)(O)C3CC12` (stereo not given) the T/C (dose: 25.0 mg/kg/injection, schedule: Q01DX005 (ip), vehicle: saline) was 104 % of control, the T/C (dose: 50.0 mg/kg/injection, schedule: Q01DX005 (ip), vehicle: saline) was 102 % of control and the T/C (dose: 100.0 mg/kg/injection, schedule: Q01DX005 (ip), vehicle: saline) was 104 % of control. The T/C (dose: 200.0 mg/kg/injection, schedule: Q01DX005 (ip), vehicle: saline) was 95 % of control.

With `CC(C)CCC(=O)OCCN1CCN(CCCN2c3ccccc3Sc3ccc(C(F)(F)F)cc32)CC1` the T/C (dose: 12.5 mg/kg/injection, schedule: Q01DX009 (ip), vehicle: Klucel (hydroxypropylcellulose) (HPC)) was 114 % of control and 117 % of control and the T/C (dose: 25.0 mg/kg/injection, schedule: Q01DX009 (ip), vehicle: Klucel (hydroxypropylcellulose) (HPC)) was 116 % of control.

With `COc1ccc(CCN2C(=O)C(=O)N(c3ccc(C)cc3)C2=O)cc1OC` the T/C (dose: 50.0 mg/kg/injection, schedule: Q01DX009 (ip), vehicle: Klucel (hydroxypropylcellulose) (HPC)) was 96 % of control, the T/C (dose: 100.0 mg/kg/injection, schedule: Q01DX009 (ip), vehicle: Klucel (hydroxypropylcellulose) (HPC)) was 97 % of control and the T/C (dose: 200.0 mg/kg/injection, schedule: Q01DX009 (ip), vehicle: Klucel (hydroxypropylcellulose) (HPC)) was 104 % of control.

`S=c1nc[nH]c2cc3cn[nH]c3cc12` was tested, and the T/C [9] was 94 % of control, the T/C [10] was 96 % of control and the T/C [11] was 92 % of control.

For `COc1ccccc1-n1c(Cc2cccc3ccccc23)nnc1SCC(=O)O`, the T/C [6] was 100 % of control, the T/C [7] was 100 % of control and the T/C [8] was 100 % of control.

With `CCC(/C=C/c1ccccc1)=N\NC(=O)c1ccccc1` the T/C [9] was 96 % of control, the T/C [10] was 96 % of control and the T/C [11] was 95 % of control.

`O=C1CN(c2cccc(C(F)(F)F)c2)C(=O)CN1/N=C/c1ccc(O)c(O)c1` was tested, and the T/C (dose: 6.25 mg/kg/injection, schedule: Q01DX005 (ip), vehicle: saline with Tween-80) was 100 % of control, the T/C (dose: 12.5 mg/kg/injection, schedule: Q01DX005 (ip), vehicle: saline with Tween-80) was 97 % of control and the T/C (dose: 25.0 mg/kg/injection, schedule: Q01DX005 (ip), vehicle: saline with Tween-80) was 96 % of control.

With `C=C1C(=O)OC2C1CCC(C)C1C=CC(=O)C12C` (stereo not given) the T/C (dose: 25.0 mg/kg/injection, schedule: Q04DX002 (ip), vehicle: saline with Tween-80) was 115 % of control, the T/C (dose: 50.0 mg/kg/injection, schedule: Q04DX002 (ip), vehicle: saline with Tween-80) was 114 % of control and the T/C (dose: 100.0 mg/kg/injection, schedule: Q04DX002 (ip), vehicle: saline with Tween-80) was 119 % of control.

`CC1CC=C2C=C(Cl)C=CC2(C)C1C` (stereo not given) was tested, and the T/C [9] was 98 % of control, the T/C [10] was 96 % of control and the T/C [11] was 91 % of control.

`CCOC(=O)N1C(C)=CC=C/C1=C/C=C(C#N)C#N` was tested, and the T/C [4] was 94 % of control, the T/C [5] was 90 % of control and the T/C (dose: 400.0 mg/kg/injection, schedule: Q01DX001 (ip), vehicle: saline with Tween-80) was 89 % of control.

With `O=C1c2ccccc2C2N1CCC1CCc3ccccc3N12` (stereo not given) the T/C (dose: 50.0 mg/kg/injection, schedule: Q01DX009 (ip), vehicle: saline with Tween-80) was 92 % of control, the T/C (dose: 100.0 mg/kg/injection, schedule: Q01DX009 (ip), vehicle: saline with Tween-80) was 91 % of control and the T/C (dose: 200.0 mg/kg/injection, schedule: Q01DX009 (ip), vehicle: saline with Tween-80) was 89 % of control.

For `CCCCCCCCCC(C)CCCCC` (stereo not given), the T/C (dose: 25.0 mg/kg/injection, schedule: Q01DX001 (ip), vehicle: saline with Tween-80) was 90 % of control, the T/C (dose: 50.0 mg/kg/injection, schedule: Q01DX001 (ip), vehicle: saline with Tween-80) was 100 % of control and the T/C [4] was 100 % of control.

In the case of `C(=NCCC[Si]12OCCN(CCO1)CCO2)c1ccco1`, the T/C [6] is reported as 113 % of control, the T/C [7] is reported as 105 % of control and the T/C [8] is reported as 105 % of control.
